The target in one test is T1, IKZF1 (Homo sapiens, UniProt Q13422+Q96SW2).
T1 construct: expressed in transfected cells
Briefly: HEK293 HiBiT in vitro degradation of IKZF1. Type of test: cell-based. The conditions noted are these: for DC50 / IKZF1 Dmax: HEK293 HiBiT; for DC50: 18-24 hr incubation, normalized to DMSO control, read-out: IKZF1 EC50; for Dmax: HEK293, HEK293 HiBiT; for Dmax / IKZF1 Dmax: maximum degradation at the highest concentration tested. Here is the method:
(§1) In vitro degradation of IKZF1, IKZF2, and SALL4 was measured using HiBiT protein tagging and detection technology (Promega).
(§2) HiBit technology was used to develop the quantitative assays to measure the cellular IKZFs level by tagging an 11 amino acid HiBit peptides […] to the protein of interest. Reporter plasmids were generated by fusing a linker sequence ([…]) followed by the HiBit tag at the C-terminus of IKZF1, IKZF2, and SALL4. The fusion fragments were subsequently cloned into pcDNA5 pcDNA™5/FRT/TO plasmids (Thermo Fisher, cat #V652020) downstream of the tetracycline operator. The resulting plasmids were co-transfected with pOG44 Flp-Recombinase Expression Vector (Thermo Fisher, cat #V600520) into Flp-In™ T-REx HEK293 line (Thermo Fisher, cat #R78077) and a stable cell pool was selected by adding 100 µg/ml of Hygromycin (Thermo Fisher, cat #10687010). The reporter cell enabled Tet-On inducible reporter expression from a single copy of the integrated gene.
(§3) On Day 1, Cells were grown to ˜80% confluency in tissue culture medium (DMEM Glutamax (Gibco10569), 10% Tet free FBS (Takara 631106), and PenStrep Glutamin (Gibco 10378)) in tissue culture flasks. Doxycycline was then added to a final concentration of […] to induce reporter expression at 37° C. overnight.
(§4) On Day 2, 125 nL of serially-diluted solution of testing compounds were dispensed into 384-well white solid assay plates via ECHO acoustic liquid handler. Cells were lifted by 0.25% Trypsin (Gibco 25200) then pelleted by centrifugation (Beckman Avanti J-E) at 500×g for 5 min. Cell pellets were resuspended in TC medium at the concentration of 3e5/mL and 25 μL of cell suspension were added into each well of compound-spotted plates. The plates were returned to a 37° C. incubator overnight (18-24 hr).
(§5) On Day 3, assay plates were removed from the tissue culture incubator and 25 μL of Nano-Glo lytic detection system (Promega, cat #N3030) was added to each well. Plates were incubated at r.t. for 3 min with shaking, and luminescence was read using an Envision reader (Perkin Elmer).
(§6) To assess the IKZF1, IKZF2, and SALL4 degrader potential of exemplified compounds of this disclosure and certain Reference Compounds EC50 and Dmax values were determined for the compounds of Examples 1 to 383 and Reference Compounds A-1, B-1, B-2, B-3, B-4, and C-1 in the HiBiT assays. Asterisks (*) indicate examples for which the data shown represents an average of n≥3.

A further test concerns the target IKZF2 (Homo sapiens, UniProt Q96SW2+Q9UKS7). Briefly: HEK293 HiBiT in vitro degradation of IKZF2. In kind it is cell-based. To be noted: for Dmax: HEK293, HEK293 HiBiT; for Dmax / IKZF2 Dmax: maximum degradation at the highest concentration tested; for DC50 / IKZF2 Dmax: HEK293 HiBiT; for DC50: 18-24 hr incubation, normalized to DMSO control, read-out: IKZF2 EC50. Set-up: expressed in transfected cells. Here is the method:
as §1, §2, §3, §4, §5, §6

Where only a bound is given, the exact number is not on record here.

Broadly, the Dmax is the largest share of the target that was removed. Higher therefore signals a fuller loss of target.

T1 sequence (Q13422 whole entry): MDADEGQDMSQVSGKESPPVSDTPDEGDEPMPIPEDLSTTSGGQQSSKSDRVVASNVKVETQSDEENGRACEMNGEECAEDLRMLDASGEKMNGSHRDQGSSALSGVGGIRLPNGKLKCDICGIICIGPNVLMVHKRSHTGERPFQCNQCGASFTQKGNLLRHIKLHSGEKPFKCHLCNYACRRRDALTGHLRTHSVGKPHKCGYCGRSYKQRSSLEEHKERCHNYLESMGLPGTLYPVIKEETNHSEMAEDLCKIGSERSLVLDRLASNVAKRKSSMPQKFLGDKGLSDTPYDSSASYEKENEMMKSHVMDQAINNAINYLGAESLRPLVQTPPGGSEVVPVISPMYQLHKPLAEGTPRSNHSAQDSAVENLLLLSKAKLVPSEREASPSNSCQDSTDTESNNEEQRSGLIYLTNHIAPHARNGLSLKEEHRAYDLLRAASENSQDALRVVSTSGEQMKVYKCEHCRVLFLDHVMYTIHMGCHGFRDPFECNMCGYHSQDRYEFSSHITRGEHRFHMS
T1 sequence (Q96SW2 whole entry): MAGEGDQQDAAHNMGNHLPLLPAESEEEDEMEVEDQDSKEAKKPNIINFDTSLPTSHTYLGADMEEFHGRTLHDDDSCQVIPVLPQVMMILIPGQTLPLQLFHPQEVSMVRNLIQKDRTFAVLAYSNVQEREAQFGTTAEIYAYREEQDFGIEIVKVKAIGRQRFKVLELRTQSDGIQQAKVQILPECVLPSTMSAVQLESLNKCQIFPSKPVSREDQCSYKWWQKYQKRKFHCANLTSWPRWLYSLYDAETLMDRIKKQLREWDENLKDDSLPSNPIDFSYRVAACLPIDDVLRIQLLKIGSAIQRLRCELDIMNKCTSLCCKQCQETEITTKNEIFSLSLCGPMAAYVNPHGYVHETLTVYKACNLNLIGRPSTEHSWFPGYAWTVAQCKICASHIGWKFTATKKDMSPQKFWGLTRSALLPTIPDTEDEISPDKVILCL
T1 sequence (Q16531 whole entry partner): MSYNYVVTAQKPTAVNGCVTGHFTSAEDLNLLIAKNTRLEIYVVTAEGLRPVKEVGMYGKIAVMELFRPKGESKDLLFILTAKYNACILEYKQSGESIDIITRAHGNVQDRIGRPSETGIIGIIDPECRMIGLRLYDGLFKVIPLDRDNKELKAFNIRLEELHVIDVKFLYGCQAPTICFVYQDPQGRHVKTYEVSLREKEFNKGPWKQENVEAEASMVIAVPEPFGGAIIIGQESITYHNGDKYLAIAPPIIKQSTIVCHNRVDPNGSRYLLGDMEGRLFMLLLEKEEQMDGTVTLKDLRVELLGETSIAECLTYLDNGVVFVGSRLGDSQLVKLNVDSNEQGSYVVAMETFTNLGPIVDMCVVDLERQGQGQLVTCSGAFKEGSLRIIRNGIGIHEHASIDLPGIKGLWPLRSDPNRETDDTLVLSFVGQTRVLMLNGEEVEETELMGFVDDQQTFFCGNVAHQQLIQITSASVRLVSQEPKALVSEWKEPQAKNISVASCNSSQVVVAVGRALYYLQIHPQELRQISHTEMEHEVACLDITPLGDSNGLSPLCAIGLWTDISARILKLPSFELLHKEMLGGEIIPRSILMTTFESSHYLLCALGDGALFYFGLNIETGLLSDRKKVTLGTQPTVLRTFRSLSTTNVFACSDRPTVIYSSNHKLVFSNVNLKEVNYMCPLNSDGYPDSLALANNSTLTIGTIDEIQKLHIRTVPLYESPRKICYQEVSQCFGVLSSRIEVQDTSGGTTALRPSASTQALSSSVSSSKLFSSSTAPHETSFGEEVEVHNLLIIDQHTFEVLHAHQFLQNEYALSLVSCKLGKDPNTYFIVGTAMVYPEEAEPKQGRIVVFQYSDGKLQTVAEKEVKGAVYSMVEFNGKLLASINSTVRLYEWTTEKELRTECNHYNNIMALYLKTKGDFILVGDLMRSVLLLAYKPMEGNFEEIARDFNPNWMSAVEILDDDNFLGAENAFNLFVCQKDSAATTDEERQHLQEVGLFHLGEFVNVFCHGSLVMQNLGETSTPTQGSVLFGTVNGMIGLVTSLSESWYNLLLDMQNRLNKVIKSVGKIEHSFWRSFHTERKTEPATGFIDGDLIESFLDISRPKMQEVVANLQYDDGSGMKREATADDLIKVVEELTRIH
IKZF2, sequence (Q9UKS7 1-500 isoform Q9UKS7-2): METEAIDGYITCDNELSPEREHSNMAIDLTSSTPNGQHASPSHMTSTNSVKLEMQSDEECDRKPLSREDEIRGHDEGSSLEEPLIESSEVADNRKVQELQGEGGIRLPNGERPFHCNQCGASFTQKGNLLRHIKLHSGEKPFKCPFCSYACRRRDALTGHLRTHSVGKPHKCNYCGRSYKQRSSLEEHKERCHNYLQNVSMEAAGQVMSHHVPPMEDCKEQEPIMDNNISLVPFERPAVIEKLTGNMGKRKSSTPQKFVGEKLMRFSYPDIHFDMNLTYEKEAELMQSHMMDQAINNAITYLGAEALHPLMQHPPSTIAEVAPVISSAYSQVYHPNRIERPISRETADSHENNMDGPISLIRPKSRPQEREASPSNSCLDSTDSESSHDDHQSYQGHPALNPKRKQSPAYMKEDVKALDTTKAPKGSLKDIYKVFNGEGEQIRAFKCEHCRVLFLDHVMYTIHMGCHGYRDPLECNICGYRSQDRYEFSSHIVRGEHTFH
IKZF2, sequence (Q96SW2 whole entry): as the sequence (Q96SW2 whole entry) above
IKZF2, sequence (Q16531 whole entry partner): as the sequence (Q16531 whole entry partner) above

`O=C1CCC(N2Cc3cc(C[C@H]4CCCC[C@@H]4N[C@@H]4CCC(F)(F)C4)ccc3C2=O)C(=O)N1` (relative stereo) [Example 302, 3-(5-(((1R,2S)-rel-2-(((R)-3,3-difluorocyclopentyl)amino)cyclohexyl)methyl)-1-oxoisoindolin-2-yl)piperidine-2,6-dione]: the DC50 at IKZF1 is greater than 1000 nM; at IKZF2, 15 nM. For the same molecule, the Dmax at IKZF2 is 89%.
For `C[C@@H]1CCCC[C@H]1N[C@H]1CCCC[C@@H]1Cc1ccc2c(c1)CN(C1CCC(=O)NC1=O)C2=O` (relative stereo) [Example 303] the same measures were greater than 1000 nM, 86 nM and 82%.
For `O=C1CCC(N2Cc3cc(C[C@H]4CCC[C@H](O)[C@@H]4NC4CCCCC4)ccc3C2=O)C(=O)N1` (relative stereo) [Example 310, 3-(5-(((1R,2R,3S)-rel-2-(cyclohexylamino)-3-hydroxycyclohexyl)methyl)-1-oxoisoindolin-2-yl)piperidine-2,6-dione], in that order: greater than 500 nM, 27 nM and 90%.
Regarding `O=C1CCC(N2Cc3cc(C[C@H]4CCCC[C@@H]4NCc4ccccc4)ccc3C2=O)C(=O)N1` (single isomer, unassigned) [Example 25], the DC50 was greater than 1000 nM on IKZF1 and 23 nM on IKZF2.
Molecule `[2H]c1c([2H])c([2H])c(CN[C@H]2CCCC[C@@H]2Cc2ccc3c(c2)CN(C2CCC(=O)NC2=O)C3=O)c([2H])c1[2H]` (single isomer, unassigned) [Example 25] came in with a Dmax on IKZF2 of 87%.
In the case of `O=C1CCC(N2Cc3cc(C[C@H]4CCCC[C@@H]4NCc4ccccc4)ccc3C2=O)C(=O)N1` (single isomer, unassigned) [Example 97], the figures for the DC50 at IKZF1 and on IKZF2 were 85 nM and 36 nM, respectively.
As to `[2H]C([2H])(N[C@H]1CCCC[C@@H]1Cc1ccc2c(c1)CN(C1CCC(=O)NC1=O)C2=O)c1ccccc1` (single isomer, unassigned) [Example 97], the greatest degradation seen (Dmax) on IKZF1 was determined as 30%; on IKZF2, 92%.
Consider `O=C1CCC(N2Cc3cc(C[C@H]4CCCC[C@@H]4NCc4ccccc4)ccc3C2=O)C(=O)N1` (single isomer, unassigned) [Example 98], for which the results for the DC50 on IKZF1 and at IKZF2 were greater than 1000 nM and 41 nM, respectively.
The molecule `[2H]c1c([2H])c([2H])c(C([2H])([2H])N[C@H]2CCCC[C@@H]2Cc2ccc3c(c2)CN(C2CCC(=O)NC2=O)C3=O)c([2H])c1[2H]` (single isomer, unassigned) [Example 98] displayed a Dmax at IKZF2 of 87%.
With `O=C1CCC(N2Cc3cc(C[C@H]4CCCC[C@@H]4NCc4ccccc4)ccc3C2=O)C(=O)N1` (single isomer, unassigned) [Example 120], the DC50 on IKZF1 is 100 nM; at IKZF2 it was 33 nM.
For the molecule `[2H]c1c([2H])c([2H])c(C([2H])N[C@H]2CCCC[C@@H]2Cc2ccc3c(c2)CN(C2CCC(=O)NC2=O)C3=O)c([2H])c1[2H]` (single isomer, unassigned) [Example 120], the Dmax at IKZF1 is 29%; at IKZF2 it was 90%.
Consider `O=C1CCC(N2Cc3cc(C[C@H]4CCCC[C@@H]4NC4CCC(C(F)(F)F)CC4)ccc3C2=O)C(=O)N1` (single isomer, unassigned) [Example 121], for which the Dmax amounted to 26% at IKZF1 and 97% on IKZF2. Besides, the DC50 on IKZF1 stood at 68 nM; at IKZF2, 3 nM.
Take `O=C1CCC(N2Cc3cc(C[C@H]4CCCC[C@@H]4NC4CCC(OC(F)(F)F)CC4)ccc3C2=O)C(=O)N1` (single isomer, unassigned) [Example 146]: at IKZF1, the DC50 stood at 168 nM and the “IKZF1 Dmax” value was determined as 34%. On IKZF2, the DC50 was 2 nM and the “IKZF2 Dmax” value is 95%.
In the case of `O=C1CCC(N2Cc3cc(C[C@H]4CCC[C@H](O)[C@@H]4NC4CCC(F)(F)CC4)ccc3C2=O)C(=O)N1` (single isomer, unassigned) [Example 151], the DC50 at IKZF1 is greater than 1000 nM. Moreover, on IKZF2, the Dmax came to 87% and the DC50 came out at 22 nM.
For the molecule `CC(C)OC1CCC(N[C@H]2CCCC[C@@H]2Cc2ccc3c(c2)CN(C2CCC(=O)NC2=O)C3=O)CC1` (single isomer, unassigned) [Example 167], on IKZF1, the Dmax is 36% and the DC50 was 77 nM. Moreover, at IKZF2, the maximal degradation (Dmax) is 97% and the DC50 came to 2 nM.
As to `CC(C)OC1CCC(N[C@H]2CCCC[C@@H]2Cc2ccc3c(c2)CN(C2CCC(=O)NC2=O)C3=O)CC1` (single isomer, unassigned) [Example 168], at IKZF1, the DC50 turned out to be 246 nM and the “IKZF1 Dmax” value amounted to 39%. Also, at IKZF2, the DC50 is 3 nM and the “IKZF2 Dmax” value is given as 97%.
Regarding `CC(N[C@H]1CCCC[C@@H]1Cc1ccc2c(c1)CN(C1CCC(=O)NC1=O)C2=O)C1(F)CC1` (single isomer, unassigned) [Example 224], the DC50 on IKZF1 was greater than 1000 nM; on IKZF2, 2 nM. The same molecule displayed a maximal degradation (Dmax) at IKZF2 of 96%.
Turning to `CC(N[C@H]1CCCC[C@@H]1Cc1ccc2c(c1)CN(C1CCC(=O)NC1=O)C2=O)C1(F)CC1` (single isomer, unassigned) [Example 225], the DC50 on IKZF1 is greater than 500 nM. At IKZF2, the DC50 is 11 nM and the “IKZF2 Dmax” value was determined as 94%.
`CC(N[C@H]1CCCC[C@@H]1Cc1ccc2c(c1)CN(C1CCC(=O)NC1=O)C2=O)C(C)(C)F` (single isomer, unassigned) [Example 226]: at IKZF1, the Dmax worked out at 84% and the DC50 was determined as 17 nM. Also, at IKZF2, the Dmax came out at 93% and the DC50 is 14 nM.
Take `CC(N[C@H]1CCCC[C@@H]1Cc1ccc2c(c1)CN(C1CCC(=O)NC1=O)C2=O)C(C)(C)F` (single isomer, unassigned) [Example 227]: the figures for the DC50 at IKZF1 and at IKZF2 were greater than 500 nM and 20 nM, respectively. At IKZF2, the “IKZF2 Dmax” value amounted to 86%.
`CC(CC1CC1)N[C@H]1CCCC[C@@H]1Cc1ccc2c(c1)CN(C1CCC(=O)NC1=O)C2=O` (single isomer, unassigned) [Example 230]: at IKZF1, the greatest degradation seen (Dmax) worked out at 30% and the DC50 stood at 66 nM. In addition, on IKZF2, the Dmax is 96% and the DC50 amounted to 3 nM.
As for `CC(CC1CC1)N[C@H]1CCCC[C@@H]1Cc1ccc2c(c1)CN(C1CCC(=O)NC1=O)C2=O` (single isomer, unassigned) [Example 231], the values for the DC50 at IKZF1 and on IKZF2 were greater than 1000 nM and 3 nM, respectively. Also, the “IKZF2 Dmax” value at IKZF2 was 96%.
As to `CCC(N[C@H]1CCCC[C@@H]1Cc1ccc2c(c1)CN(C1CCC(=O)NC1=O)C2=O)C1CC1` (single isomer, unassigned) [Example 232], the DC50 at IKZF1 was greater than 1000 nM. Further, at IKZF2, the Dmax was determined as 93% and the DC50 came out at 21 nM.
For `CCC(N[C@H]1CCCC[C@@H]1Cc1ccc2c(c1)CN(C1CCC(=O)NC1=O)C2=O)C1CC1` (single isomer, unassigned) [Example 233], the DC50 is greater than 1000 nM on IKZF1 and 3 nM on IKZF2. Besides, at IKZF2, the “IKZF2 Dmax” value came out at 97%.
For `CC(N[C@H]1CCCO[C@@H]1Cc1ccc2c(c1F)CN(C1CCC(=O)NC1=O)C2=O)C1CCC1` (single isomer, unassigned) [Example 248], in that order: greater than 1000 nM, 21 nM and 92%.
Consider `CC(CC(F)(F)F)N[C@H]1CCCC[C@@H]1Cc1ccc2c(c1)CN(C1CCC(=O)NC1=O)C2=O` (single isomer, unassigned) [Example 249], for which the DC50 on IKZF1 was greater than 1000 nM. On IKZF2, the Dmax was found to be 97% and the DC50 came out at 4 nM.
For `CC(N[C@H]1CCCC[C@@H]1Cc1ccc2c(c1)CN(C1CCC(=O)NC1=O)C2=O)C1CCCO1` (single isomer, unassigned) [Example 253] the same measures were greater than 1000 nM, 96% and 9 nM.
As to `CC(N[C@H]1CCCC[C@@H]1Cc1ccc2c(c1)CN(C1CCC(=O)NC1=O)C2=O)C1CCCO1` (single isomer, unassigned) [Example 254], the DC50 at IKZF1 was greater than 1000 nM. For the same molecule, at IKZF2, the DC50 was determined as 33 nM and the “IKZF2 Dmax” value was 84%.

(Values after patent US11897862B2 (Gilead Sciences, Inc., priority 2022, dated 2024).)
